{"source": "patent US9187411B2", "about": "“Leukotriene B4 antagonist compound” (Eli Lilly and Company, priority 2012, dated 2015)", "target": "T1, PPARδ (Homo sapiens, UniProt Q03181)", "T1 construct": "made in house; host or cells: Sf9 insect cells (baculovirus), crude cell lysate", "T1 sequence (Q03181 1-441)": "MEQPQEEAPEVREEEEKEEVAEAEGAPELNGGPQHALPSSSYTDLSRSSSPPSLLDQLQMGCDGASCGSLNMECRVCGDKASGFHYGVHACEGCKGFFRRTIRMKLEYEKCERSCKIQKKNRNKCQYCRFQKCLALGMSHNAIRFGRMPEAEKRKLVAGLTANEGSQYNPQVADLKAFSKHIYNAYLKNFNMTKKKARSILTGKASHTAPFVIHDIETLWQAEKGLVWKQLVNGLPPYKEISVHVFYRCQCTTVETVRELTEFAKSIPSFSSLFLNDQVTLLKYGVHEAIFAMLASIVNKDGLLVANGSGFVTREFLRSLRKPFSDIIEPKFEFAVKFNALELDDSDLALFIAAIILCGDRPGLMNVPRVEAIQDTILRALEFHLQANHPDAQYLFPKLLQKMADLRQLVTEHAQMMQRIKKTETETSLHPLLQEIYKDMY", "T1 sequence (P19793 1-462 partner)": "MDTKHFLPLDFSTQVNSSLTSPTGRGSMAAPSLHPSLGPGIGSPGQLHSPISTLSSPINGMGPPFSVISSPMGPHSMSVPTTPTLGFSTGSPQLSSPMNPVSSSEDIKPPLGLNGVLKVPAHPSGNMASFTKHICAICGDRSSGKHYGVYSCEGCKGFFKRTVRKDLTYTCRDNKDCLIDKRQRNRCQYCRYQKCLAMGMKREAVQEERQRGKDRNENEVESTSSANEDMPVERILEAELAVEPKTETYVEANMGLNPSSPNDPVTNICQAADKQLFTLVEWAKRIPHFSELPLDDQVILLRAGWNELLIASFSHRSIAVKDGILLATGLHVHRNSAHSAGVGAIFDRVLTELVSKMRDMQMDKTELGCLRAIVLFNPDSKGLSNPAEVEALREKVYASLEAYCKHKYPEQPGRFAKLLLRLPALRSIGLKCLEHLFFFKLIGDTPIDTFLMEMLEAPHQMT", "assay": "PPAR delta binding assay (SPA)", "details": "tritiated GW2331, n=4, read-out: Ki PPAR δ binding", "source_text": "The nucleotide sequences encoding full-length PPARα receptor DNA (National Center for Biotechnology Information (NCBI) Reference Sequence NM_005036.4), PPARδ receptor DNA (NCBI Reference Sequence NM_006238.4), PPARγ receptor DNA (NCBI Reference Sequence NM_015869.4) and Retinoid X Receptor (RXR) α DNA (NCBI Reference Sequence NM_002957.4) are synthesized and inserted into pFastBacHTb (Invitrogen) vector in-framed with the N-terminal HIS tag from the vector. […] The protein concentration is determined by Bradford assay using BSA as the standard.\nBinding Affinities of Compounds for the PPAR α, δ, γ Receptors are Assessed Using Scintillation Proximity Assay (SPA) Technology.\nBiotinylated oligonucleotide(DR2) ^5′[…]^3′ (SEQ ID NO: 1) is used for binding of receptors to Yttrium silicate streptavidin-coated SPA beads (Perkin Elmer). The PPAR α, δ, γ and Retinoid X Receptor (RXR) α receptors (endogenously expressed as heterodimers) are cell lysates from Baculovirus expression systems in Sf9 cells. […] Non-specific binding is determined in the presence of 10000 nM unlabeled GW2331 (Kliewer, S. A. et al Proc. Natl. Acad. Sci. USA (1997), 94: 4318-4323) for the alpha and delta receptors and 2-methyl-2-[4-[3-[propyl[(5-pyridin-2-ylthiophen-2-yl)sulfonyl]amino]-propyl]phenoxy]propanoic (WO 2004/073606) for the gamma receptor. […]", "note": "pKi: −log10 of the molar value."}
{"smiles": "CCCc1c(NC(=O)CC(C)(C)C(=O)[O-])cccc1OCCCOc1cc(O)c(-c2ccc(F)cc2)cc1CC.[Na+]", "note": "[Example 2, Sodium 4-[[3-[3-[2-ethyl-4-(4-fluorophenyl)-5-hydroxy-phenoxy]propoxy]-2-propyl-phenyl]amino]-2,2-dimethyl-4-oxo-butanoate]", "values": [{"measurement": "pKi", "value": "< 5.05"}]}
